Where two headings read alike, the source gives them in different places.
Assays:
[1] = in vivo; format: in vivo; conditions: mouse, in vivo, ip; i.p. in mice; N = 5, K = 4; read-out: LD50 and fiducial limits
Description: (§1) The acute toxicity of the compounds of general formula (I) was investigated in mice using the Weil method (Weil C. S., Biometr. J. 8, 249, 1952).

[2] = system: arrythmia induced by Aconitine in mice; assay: animal or person; format: in vivo; conditions: for change in vivo at 100 mg/kg / change in vivo at 25 mg/kg / change in vivo at 40 mg/kg / change in vivo at 8.9 mg/kg / change in vivo at 50 mg/kg / change in vivo at 35 mg/kg / change in vivo at 20 mg/kg: Mus musculus, iv; for % increase of the latency time to onset of initial cardiac arrythmia / % increase of the latency time to onset of tachycardia: with respect to the control group
Procedure: The antiarrhythmic effect of the compounds was also investigated in mice according to the P. W. Nwangwu, T. Holcslow procedure (P. W. Nwangwu, T. L. Holcslow; Arch. Int. Pharmacodyn. 229, 219 (1977)). Using aconitine (5γ/ml) as arrhythmogenic agent, the changes in the cardiac rhythm of the animals were recorded and the onset time of initial arrhythmia and/or of ventricular tachycardia were used as end point.

[3] = system: plasma cholesterol (Chol.) triglycerides (TG) and α-, β- and pre-β-lipoproteins; assay: plasma cholesterol, triglycerides and lipoproteins in rats treated with olive oil; format: in vivo; conditions: olive oil 15 ml kg^-1, N = 6; for % Lipoproteins β: control 16.12 ± 1.48; for % Lipoproteins α: control 23.28 ± 2.19; for % Lipoproteins pre-β: control 56.45 ± 2.36; for Chol. (plasma cholesterol): control 96.18 ± 4.16; for TG (plasma triglycerides): control 215.36 ± 20.18
[4] = system: mice; assay: in vivo; format: in vivo; conditions: i.p. in mice; N = 5, K = 4
Description: as §1

[5] = system: rabbit's heart "in vitro"; assay: cardiokinetic effect: contractile force of isolated rabbit heart (Langendorff) after anoxia; conditions: 10^-6 M; 10 minutes from the interruption of the anoxic period; control 26.93 ± 5.31
Procedure: The cardiokinetic effect was investigated on rabbit hearts isolated by the Langendorff method. […] The isometric contractions, electro-cardiogram and coronary flow were recorded using a "Battaglia-Rangoni" polygraph. By removing the oxygen from the perfusion fluid, metabolic damage was induced in the cardiac muscle, up to an 80% reduction in the cardiac contractile force. Under these conditions of prolonged anoxia the aerobic glycolysis of the myocardium is slowed down with attendant formation of acid catabolites due to both the accumulation of pyruvic acid and its conversion to lactic acid which cannot be utilized because of the depression of pyridine enzymes, such as LDH (lactodehydrogenase). This has repercussions on the anaerobic glycolysis affecting an ever increasing number of enzymes, accompanied by a progressive and increasingly critical exhaustion of the myocardium. Thus a whole series of cardiac muscle fatigue levels occurs which can be observed by the behaviour of the examined parameters, namely the contractile force, coronary flow, heart rate and cardiac rhythm. As soon as the contractile force was reduced by 80%, the perfusion fluid was once again oxygenated either without adding other compounds (controls) or with the addition of the compounds under examination.

[6] = read-out: % increase of the latency time to onset of initial cardiac arrythmia
[7] = read-out: % increase of the latency time to onset of tachycardia

C[N+](C)(C)CC(CC(=O)O)OC(=O)CC1C=CCC1 (centres unmarked) [2-cyclopenten ACAR]
LD50 [1]: 1200 mg/kg | change in vivo at 100 mg/kg [2, 6]: 40% | change in vivo at 100 mg/kg [2, 7]: 20%

CC(C)(O)C(=O)OC(CC(=O)O)C[N+](C)(C)C (centres unmarked) [2-hydroxy isobutyryl CAR]
LD50 [1]: 1470 mg/kg | change in vivo at 25 mg/kg [2, 6]: 55% | change in vivo at 25 mg/kg [2, 7]: 48% | % Lipoproteins β ([3]; 450 mg kg^-1 oral): 10.36 ± 1.12% | % Lipoproteins α ([3]; 450 mg kg^-1 oral): 27.19 ± 3.48% | % Lipoproteins pre-β ([3]; 450 mg kg^-1 oral): 48.36 ± 1.15% | Chol. (plasma cholesterol) ([3]; 450 mg kg^-1 oral): 75.03 ± 4.12 mg/100 ml | TG (plasma triglycerides) ([3]; 450 mg kg^-1 oral): 100.29 ± 12.48 mg/100 ml

CC(C)C(O)C(=O)OC(CC(=O)O)C[N+](C)(C)C (centres unmarked) [2-hydroxy isovaleryl CAR]
LD50 [1]: 1580 mg/kg | change in vivo at 40 mg/kg [2, 6]: 60% | change in vivo at 40 mg/kg [2, 7]: 30%

COC(=O)CCC(=O)OC(CC(=O)O)C[N+](C)(C)C (centres unmarked) [3-carbomethoxypropionyl CAR, 3-carbomethoxypropionyl carnitine chloride]
LD50 [1]: 985 mg/kg | change in vivo at 25 mg/kg [2, 6]: 65% | change in vivo at 25 mg/kg [2, 7]: 39% | % Lipoproteins β ([3]; 350 mg kg^-1 oral): 11.18 ± 1.15% | % Lipoproteins α ([3]; 350 mg kg^-1 oral): 34.17 ± 3.23% | % Lipoproteins pre-β ([3]; 350 mg kg^-1 oral): 50.03% | Chol. (plasma cholesterol) ([3]; 350 mg kg^-1 oral): 69.25 ± 3.26 mg/100 ml | TG (plasma triglycerides) ([3]; 350 mg kg^-1 oral): 88.15 ± 15.36 mg/100 ml

C=C[C@H]1C[N@@]2CC[C@H]1C[C@@H]2[C@@H](O)c1ccnc2ccc(OC)cc12 [Quinidine, reference compound]
change in vivo at 8.9 mg/kg [2, 6]: 50% | change in vivo at 8.9 mg/kg [2, 7]: 41.7%

C=CC(=O)OC(CC(=O)O)C[N+](C)(C)C (centres unmarked) [acrilyl-CAR]
LD50 [1]: 1380 mg/kg | change in vivo at 50 mg/kg [2, 6]: 45% | change in vivo at 50 mg/kg [2, 7]: 39%

C[N+](C)(C)CC(CC(=O)O)OC(=O)CC1CCCCC1 (centres unmarked) [cyclohexyl ACAR, cyclohexyl acetyl carnitine chloride]
LD50 [1]: 850 mg/kg | change in vivo at 35 mg/kg [2, 6]: 63% | change in vivo at 35 mg/kg [2, 7]: 44% | % Lipoproteins β ([3]; 400 mg kg^-1 oral): 12.15 ± 1.09% | % Lipoproteins α ([3]; 400 mg kg^-1 oral): 36.48 ± 2.36% | % Lipoproteins pre-β ([3]; 400 mg kg^-1 oral): 49.12% | Chol. (plasma cholesterol) ([3]; 400 mg kg^-1 oral): 85.15 ± 4.26 mg/100 ml | TG (plasma triglycerides) ([3]; 400 mg kg^-1 oral): 100.12 ± 15.16 mg/100 ml

CCOCC(=O)OC(CC(=O)O)C[N+](C)(C)C (centres unmarked) [ethoxy ACAR, ethoxy acetyl carnitine chloride]
LD50 [1]: 2120 mg/kg | change in vivo at 20 mg/kg [2, 6]: 60% | change in vivo at 20 mg/kg [2, 7]: 55% | % Lipoproteins β ([3]; 250 mg kg^-1 oral): 10.28 ± 1.52% | % Lipoproteins α ([3]; 250 mg kg^-1 oral): 37.15 ± 2.17% | % Lipoproteins pre-β ([3]; 250 mg kg^-1 oral): 42.15 ± 2.27% | Chol. (plasma cholesterol) ([3]; 250 mg kg^-1 oral): 70.26 ± 6.48 mg/100 ml | TG (plasma triglycerides) ([3]; 250 mg kg^-1 oral): 78.25 ± 10.12 mg/100 ml

CCOCC(=O)O[C@H](CC(=O)O)C[N+](C)(C)C.[Cl-] [ethoxyacetyl CAR]
LD50 and fiducial limits [4]: 760 (545-975) mg kg^-1 | contractile force, mean ± ESM [5]: 62.25 ± 3.24% | % increase of the latency time to onset of initial cardiac arrythmia ([2]; 100 mg kg^-1 i.v.): 40% | % increase of the latency time to onset of tachycardia ([2]; 100 mg kg^-1 i.v.): 20%

CC(C=O)C(=O)OC(CC(=O)[O-])C[N+](C)(C)C (centres unmarked) [formyl propionyl CAR]
LD50 and fiducial limits [4]: 1010 (850-1170) mg kg^-1 | contractile force, mean ± ESM [5]: 74.26 ± 4.15% | % increase of the latency time to onset of initial cardiac arrythmia ([2]; 60 mg kg^-1 i.v.): 55% | % increase of the latency time to onset of tachycardia ([2]; 60 mg kg^-1 i.v.): 34%

COCC(=O)OC(CC(=O)O)C[N+](C)(C)C (centres unmarked) [methoxy ACAR, methoxy acetyl carnitine chloride]
LD50 [1]: 1980 mg/kg | change in vivo at 25 mg/kg [2, 6]: 65% | change in vivo at 25 mg/kg [2, 7]: 50%

CC(C)(C)CC(=O)OC(CC(=O)O)C[N+](C)(C)C (centres unmarked) [tert-butyl ACAR]
LD50 [1]: 1120 mg/kg | change in vivo at 25 mg/kg [2, 6]: 59% | change in vivo at 25 mg/kg [2, 7]: 36% | % Lipoproteins β ([3]; 350 mg kg^-1 oral): 13.27 ± 1.12% | % Lipoproteins α ([3]; 350 mg kg^-1 oral): 31.12 ± 2.17% | % Lipoproteins pre-β ([3]; 350 mg kg^-1 oral): 51.36% | Chol. (plasma cholesterol) ([3]; 350 mg kg^-1 oral): 70.12 ± 3.24 mg/100 ml | TG (plasma triglycerides) ([3]; 350 mg kg^-1 oral): 99.36 ± 10.12 mg/100 ml

vinyl acetyl carnitine chloride [vinyl CAR]
LD50 and fiducial limits [4]: 1200 (800-1600) mg kg^-1 | contractile force, mean ± ESM [5]: 48.25 ± 5.12% | % increase of the latency time to onset of initial cardiac arrythmia ([2]; 38 mg kg^-1 i.v.): 53% | % increase of the latency time to onset of tachycardia ([2]; 38 mg kg^-1 i.v.): 41% | % Lipoproteins β ([3]; 300 mg kg^-1 oral): 14.13 ± 1.63% | % Lipoproteins α ([3]; 300 mg kg^-1 oral): 29.46 ± 3.15% | % Lipoproteins pre-β ([3]; 300 mg kg^-1 oral): 48.89 ± 2.96% | Chol. (plasma cholesterol) ([3]; 300 mg kg^-1 oral): 78.15 ± 6.16 mg/100 ml | TG (plasma triglycerides) ([3]; 300 mg kg^-1 oral): 112.15 ± 15.16 mg/100 ml

From patent US4766222A, “Novel class of acyl-derivatives of carnitine process for preparing same and therapeutic use thereof” (Sigma-Tau Industrie Farmacuetiche Riunite S.p.A., priority 1980, dated 1988)
